Laboratory results: article PMC8376931, “Structure activity relationships and the binding mode of quinolinone-pyrimidine hybrids as reversal agents of multidrug resistance mediated by P-gp” (Scientific Reports, 2021)
Where two headings read alike, the source gives them in different places.

Key:
P-gp [1] = biological target: T1, P-gp (Homo sapiens, UniProt P08183); details: 1 h
Experimental: (§1) The intracellular accumulation of the fluorescent probes, Dox and Rho123, was determined by monitoring its fluorescence intensity using flow cytometry (96-well plate format), as previously reported. The inhibition on the outward transport of these P-gp substrates results in an increased […] fluorescence intensity (MFI). […] Those compounds showing inhibition on P-gp at the maximum tested concentration were further evaluated at serial dilutions to determinate their MECs. […] The plates were then incubated in a 5% CO2 incubator for 1 h at 37 °C. Afterwards, 5 μM Dox was added to each well. The other fluorescent specific substrate of P-gp, Rho123, however, was added at 500 ng/mL to additionally measure the ability of the most promising compounds to block its efflux. Subsequently, cells from both assays were washed twice with cold PBS, and 15,000 events from each sample were analyzed to determine the cell-associated fluorescence. Dead cells were eliminated by means of forward- and side-scatter parameters. […] The blocking of the P-gp transport function was evaluated by the parameter FIR, calculated as the ratio of the MFI of Dox or Rho123 with the addition of the likely inhibitor to the MFI of Dox or Rho123 alone.

K562 cells [2] = experiment: Doxorubicin intracellular accumulation assay (flow cytometry) in K562; type: cell-based; set-up: key: MFI with inhibitor / MFI of Dox alone; details: compound 20 µM; 5 μM Dox
Experimental: as §1

P-gp [3] = biological target: T1, P-gp; details: human, 1 h; for FIR Rho123: 0.62 µM; for FIR Rho123 (fold more Rho123 than untreated cells): 20 µM
Experimental: The intracellular accumulation of the fluorescent probes, Dox and Rho123, was determined by monitoring its fluorescence intensity using flow cytometry (96-well plate format), as previously reported. The inhibition on the outward transport of these P-gp substrates results in an increased […] fluorescence intensity (MFI). […] The plates were then incubated in a 5% CO2 incubator for 1 h at 37 °C. Afterwards, 5 μM Dox was added to each well. The other fluorescent specific substrate of P-gp, Rho123, however, was added at 500 ng/mL to additionally measure the ability of the most promising compounds to block its efflux. Subsequently, cells from both assays were washed twice with cold PBS, and 15,000 events from each sample were analyzed to determine the cell-associated fluorescence. Dead cells were eliminated by means of forward- and side-scatter parameters. […] The blocking of the P-gp transport function was evaluated by the parameter FIR, calculated as the ratio of the MFI of Dox or Rho123 with the addition of the likely inhibitor to the MFI of Dox or Rho123 alone.

K562 cells [4] = experiment: Rhodamine 123 intracellular accumulation assay in K562; type: cell-based; details: 20 μM
Experimental: as §1

K562 cells [5] = experiment: MTT cytotoxicity assay in K562; type: cell-based; details: 48 h
Experimental: (§2) Then 0.5 mg/mL MTT in PBS was added. After additional incubation for 4 h, the formazan crystals obtained were dissolved in DMSO and the absorbance at 595 nm was read on an iMark micro-plate reader (Bio-Rad, USA). IC50 values for cytotoxicity were then calculated as reported[50] using nonlinear regression by GraphPad Prism 7 (Graphpad Software, Inc., San Diego, CA, USA, www.graphpad.com).
(§3) The cells were incubated at 37 °C at 5% CO2 for 48 h and the same protocol described above was followed. IC50 values of Dox were then obtained.

Lucena 1 cells [6] = experiment: MTT cytotoxicity assay in Lucena 1; type: cell-based; details: 48 h
Experimental: as §2, §3

Lucena 1 cells [7] = experiment: Doxorubicin resistance reversal assay; type: cell-based; details: for lowest co-administered concentration significantly increasing doxorubicin toxicity: p < 0.05
Experimental: as §3

PBMC = experiment: Cytotoxicity on peripheral blood mononuclear cells (MTT); type: cell-based; details: Homo sapiens, 48 h, PHA 10 μg/mL, read-out: inhibition on proliferation of PBMC
Experimental: (§4) PBMC were isolated from heparinized blood of healthy volunteers by density centrifugation using Ficoll-Hypaque separation. Ethical approval was provided by the Catholic University of Córdoba Research Ethics Board and informed consents were obtained from all donors. Briefly, 1 × 10^5 PBMC/well were incubated with the tested compounds at concentrations ranging from 2.5 to 20 µM in the presence of 10 μg/mL PHA, or with 1% DMSO as control. After 48 h incubation, MTT was added and the same protocol described above was followed to calculate the IC50 values. An erythrocyte hemolysis assay was carried out following previous procedures[8] with the compounds assayed at 2.5 to 20 µM.

erythrocytes = experiment: Erythrocyte hemolysis assay; type: cell-based; details: assayed at 2.5 to 20 µM
Experimental: as §4

SphK1 = details: previously found; read-out: IC50 against SphK1; cited from earlier work
SphK2 = details: previously found; read-out: IC50 against SphK2; cited from earlier work
[8] = compound 1.25 µM, FR = IC50 Dox/IC50 Dox with compound, 48 h

T1 sequence (P08183 whole entry): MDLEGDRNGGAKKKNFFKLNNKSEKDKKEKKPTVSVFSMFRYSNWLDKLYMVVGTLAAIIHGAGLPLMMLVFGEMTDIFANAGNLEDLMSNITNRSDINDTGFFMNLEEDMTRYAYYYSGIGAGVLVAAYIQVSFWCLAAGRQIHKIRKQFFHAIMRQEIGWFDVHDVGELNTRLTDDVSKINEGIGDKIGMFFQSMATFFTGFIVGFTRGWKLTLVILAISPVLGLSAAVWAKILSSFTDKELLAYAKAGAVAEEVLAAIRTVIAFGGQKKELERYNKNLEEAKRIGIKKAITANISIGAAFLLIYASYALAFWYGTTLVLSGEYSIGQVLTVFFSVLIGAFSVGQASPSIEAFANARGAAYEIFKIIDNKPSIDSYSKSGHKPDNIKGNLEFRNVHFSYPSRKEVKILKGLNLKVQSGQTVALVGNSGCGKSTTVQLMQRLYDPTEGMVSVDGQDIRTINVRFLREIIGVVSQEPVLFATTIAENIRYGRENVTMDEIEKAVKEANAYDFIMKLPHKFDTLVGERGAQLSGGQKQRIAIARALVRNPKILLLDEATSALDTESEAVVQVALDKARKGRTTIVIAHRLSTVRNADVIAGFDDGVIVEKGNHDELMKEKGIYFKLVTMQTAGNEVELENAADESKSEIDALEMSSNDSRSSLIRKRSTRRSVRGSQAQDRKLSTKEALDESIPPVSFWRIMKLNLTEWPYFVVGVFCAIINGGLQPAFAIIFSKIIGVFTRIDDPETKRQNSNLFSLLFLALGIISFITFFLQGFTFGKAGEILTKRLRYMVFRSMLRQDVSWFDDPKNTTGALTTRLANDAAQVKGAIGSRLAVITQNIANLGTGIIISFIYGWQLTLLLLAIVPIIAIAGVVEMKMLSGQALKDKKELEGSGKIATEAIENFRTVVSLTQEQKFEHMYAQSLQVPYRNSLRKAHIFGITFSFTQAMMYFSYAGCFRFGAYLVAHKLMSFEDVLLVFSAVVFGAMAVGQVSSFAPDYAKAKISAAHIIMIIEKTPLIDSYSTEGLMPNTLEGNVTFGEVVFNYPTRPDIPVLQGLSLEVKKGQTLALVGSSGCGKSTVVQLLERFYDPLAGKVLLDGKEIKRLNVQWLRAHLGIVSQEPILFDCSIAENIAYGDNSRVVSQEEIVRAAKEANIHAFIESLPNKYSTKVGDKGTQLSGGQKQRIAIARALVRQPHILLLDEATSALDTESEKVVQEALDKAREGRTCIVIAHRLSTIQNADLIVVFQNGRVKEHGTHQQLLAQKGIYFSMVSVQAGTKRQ

Row | Structure (SMILES) | minimum effective concentration (MEC), Dox accumulation (P-gp [1]) | FIR Lucena 1 (P-gp [1]; 0.16 µM) | FIR Lucena 1 (P-gp [1]; 0.31 µM) | FIR Lucena 1 (P-gp [1]; 0.62 µM) | FIR Lucena 1 (P-gp [1]; 1.25 µM) | FIR Lucena 1 (P-gp [1]; 2.5 µM) | FIR Lucena 1 (P-gp [1]; 5 µM) | FIR Lucena 1 (P-gp [1]; 10 µM) | FIR Lucena 1 (P-gp [1]; 20 µM) | FIR K562 (K562 cells [2]) | minimum effective concentration (MEC), Rho123 accumulation (P-gp [3]) | FIR Rho123 (P-gp [3]) | FIR Rho123 (fold more Rho123 than untreated cells) (P-gp [3]) | Rho123 accumulation in K562 (result in words) (K562 cells [4]) | IC50 (cytotoxicity) against K562 (K562 cells [5]) | IC50 (cytotoxicity) against Lucena 1 (Lucena 1 cells [6]) | fold reversal (FR) of Dox resistance (Lucena 1 cells [7]; [8]) | lowest co-administered concentration significantly increasing doxorubicin toxicity (Lucena 1 cells [7]) | inhibition at 20 µM (PBMC) | concentrations at which the erythrocyte membrane was not altered (erythrocytes) | other results
1 | COc1cc2cc(CNc3ccc(Nc4nccc(-c5ccc6ccccc6c5)n4)cc3)c(=O)[nH]c2cc1OC [Compound 5c] | 0.31 µM | 0.99 ± 0.07 | 1.12 ± 0.02 | 1.29 ± 0.08 | 1.22 ± 0.03 | 1.26 ± 0.01 | 1.23 ± 0.05 | 1.24 ± 0.10 | 1.42 ± 0.09 | 0.95 ± 0.02 | 0.62 µM | 1.36 ± 0.04 | 2.72 ± 0.10 | no increase | non-toxic | non-toxic | 5.16 ± 0.60 | 0.04 µM | 21% | lower than 10 µM | fold reversal (FR) of Dox resistance (Lucena 1 cells [7]; compound 40 nM): 1.30 ± 0.05
2 | COc1ccc2[nH]c(=O)c(CN3CCN(c4nccc(-c5ccc6ccccc6c5)n4)CC3)cc2c1 [Compound 7b] | 0.31 µM | 1.04 ± 0.02 | 1.10 ± 0.01 | 1.21 ± 0.01 | 1.18 ± 0.03 | 1.26 ± 0.04 | 1.26 ± 0.04 | 1.25 ± 0.04 | 1.43 ± 0.10 | 0.88 ± 0.02 | 0.62 µM | 1.37 ± 0.06 | 3.05 ± 0.16 | no increase | non-toxic | non-toxic | 6.90 ± 2.84 | 0.08 µM | 12% | < 20 µM | fold reversal (FR) of Dox resistance (Lucena 1 cells [7]; compound 80 nM): 1.51 ± 0.23; IC50 (SphK1): > 650 µM; IC50 (SphK2): > 650 µM
